Structures can show the parent of a compound that is named as a salt. Where only a bound is given, the exact number is not on record here.

For the assay, the target named is sodium channel isoforms of interest stably expressed in Human Embryonic Kidney Cells (voltage-gated sodium channel, particularly NaV1.1) (Homo sapiens, UniProt P35498). The assay is described as follows: automated planar patch clamp assay of sodium channel gating (area under the sodium current trace). The class given is cell-based. The note with it: HEK cells, voltage step from −120 mV to 0 mV, increasing concentrations. The source says:
A typical assay described in Crestey, F. et al., ACS Chem Neurosci (2015), Vol. 6, pp. 1302-1308, AA43279 (Frederiksen, K. et al., Eur J Neurosci (2017), Vol. 46, pp. 1887-1896) and Lu AE98134 (von Schoubyea, N. L. et al., Neurosci Lett (2018), Vol. 662, pp. 29-35) employs the use of automated planar patch clamp techniques to study the effects of the chemical agent on the gating of sodium channels. The sodium channel isoforms of interest are stably expressed in Human Embryonic Kidney Cells and the currents that flow through those channels in response to a depolarizing voltage clamp step from −120 mV to 0 mV are measured in the presence of increasing concentrations of the chemical agents. The area under the sodium current trace which correlates to the magnitude of sodium flux through the cell membrane is used to quantify the effects on gating of the channels. Other parameters that are measured in the assay include the peak current, time constant of open state inactivation and the voltage dependence of steady state inactivation properties. The concentration responses are used to determine potency of each chemical agents effects on modulating the sodium channel isoform gating. Such techniques are known to those skilled in the art, and may be developed, using current technologies, into low or medium throughput assays for evaluating compounds for their ability to modulate sodium channel behaviour.
As disclosed above, typical assays for testing compounds of the disclosure are known, for example as disclosed in Crestey, F. et al., ACS Chem Neurosci (2015), Vol. 6, pp. 1302-1308, AA43279 (Frederiksen, K. et al., Eur J Neurosci (2017), Vol. 46, pp. 1887-1896) and Lu AE98134 (von Schoubyea, N. L. et al., Neurosci Lett (2018), Vol. 662, pp. 29-35) which employs the use of automated planar patch clamp techniques to study the effects of the chemical agent on the gating of sodium channels. The sodium channel isoforms of interest are stably expressed in Human Embryonic Kidney Cells and the currents that flow through those channels in response to a depolarizing voltage clamp step from −120 mV to 0 mV are measured in the presence of increasing concentrations of the chemical agents. The area under the sodium current trace which correlates to the magnitude of sodium flux through the cell membrane is used to quantify the effects on gating of the channels. Other parameters that are measured in the assay include the peak current, time constant of open state inactivation and the voltage dependence of steady state inactivation properties. The concentration responses are used to determine potency of each chemical agents effects on modulating the sodium channel isoform gating.
With `Fc1ccc(F)c(-c2ccnc(N3CC[C@H](F)C3)c2-c2nc3cnc(Cl)cc3[nH]2)c1` [Example 1, (S)-6-chloro-2-(4-(2,5-difluorophenyl)-2-(3-fluoropyrrolidin-1-yl)pyridin-3-yl)-1H-imidazo[4,5-c]pyridine], the EC50 is below 1 µM and the “Empirical Emax” value was “++++ (++++ indicates a value greater than 7.5)”.
In the same order, the values of `Fc1ccccc1-c1ccnc(N2CCCC2)c1-c1nc2ncccc2[nH]1` [Example 2, 2-(4-(2-fluorophenyl)-2-(pyrrolidin-1-yl)pyridine-3-yl)-1H-imidazo[4,5-b]pyridine] are 1 to 10 µM and “++++ (++++ indicates a value greater than 7.5)”.
In the same order, the values of `Fc1ccccc1-c1ccnc(N2CCCC2)c1-c1nc2ccccc2[nH]1` [Example 3, 2-(4-(2-fluorophenyl)-2-(pyrrolidin-1-yl)pyridin-3-yl)-1H-benzo[d]imidazole] are 1 to 10 µM and “++++ (++++ indicates a value greater than 7.5)”.
Turning to `Nc1nnc(-c2c(-c3ccccc3F)ccnc2N2CCCC2)o1` [Example 4, 5-(4-(2-fluorophenyl)-2-(pyrrolidin-1-yl)pyridin-3-yl)-1,3,4-oxadiazol-2-amine], the EC50 is at least 50 µM and the “Empirical Emax” value is given as “+++ (+++ indicates a value from 5.0 up to 7.5 μM)”.
Consider `CC(C)CC1CN=C(c2c(-c3ccccc3F)ccnc2N2CCCC2)N1` (centres unmarked) [Example 5, 4-(2-fluorophenyl)-3-(5-isobutyl-4,5-dihydro-1H-imidazol-2-yl)-2-(pyrrolidin-1-yl)pyridine], for which the EC50 fell in the range of 1 to 10 µM and the “Empirical Emax” value was “+ (+ indicates a value less than 2.0 μM)”.
With `Clc1ccccc1-c1ccnc(N2CCCC2)c1-c1nc2ccccc2[nH]1` [Example 6, 2-(4-(2-chlorophenyl)-2-(pyrrolidin-1-yl)pyridin-3-yl)-1H-benzo[d]imidazole], the EC50 lay in the range of 1 to 10 µM and the “Empirical Emax” value is reported as “++ (++ indicates a value from 2.0 up to 5.0 μM)”.
Take `Cc1ccccc1-c1ccnc(N2CCCC2)c1-c1nc2ccccc2[nH]1` [Example 7, 2-(2-(pyrrolidin-1-yl)-4-(o-tolyl)pyridin-3-yl)-1H-benzo[d]imidazole]: the EC50 fell in the range of 1 to 10 µM and the “Empirical Emax” value is listed as “++ (++ indicates a value from 2.0 up to 5.0 μM)”.
Consider `Cc1ccccc1-c1ccnc(N2CCOCC2)c1-c1nc2ccccc2[nH]1` [Example 8, 4-(3-(1H-benzo[d]imidazol-2-yl)-4-(o-tolyl)pyridin-2-yl)morpholine], for which the EC50 fell in the range of 10 to 50 µM and the “Empirical Emax” value is listed as “+++ (+++ indicates a value from 5.0 up to 7.5 μM)”.
In the same order, the values of `Fc1ccccc1-c1ccnc(N2CC[C@H](F)C2)c1-c1nnco1` [Example 9, (S)-2-(4-(2-fluorophenyl)-2-(3-fluoropyrrolidin-1-yl)pyridin-3-yl)-1,3,4-oxadiazole] are at least 50 µM and “++ (++ indicates a value from 2.0 up to 5.0 μM)”.
The like results for `c1ccc(-c2ccnc(N3CCCC3)c2-c2nc3ccccc3[nH]2)nc1` [Example 10, 2-(2′-(pyrrolidin-1-yl)-[2,4′-bipyridin]-3′-yl)-1H-benzo[d]imidazole] were, in that order, 10 to 50 µM and “++ (++ indicates a value from 2.0 up to 5.0 μM)”.
The like results for `Fc1ccccc1-c1ccnc(N2CCCC2)c1-c1nc2ccncc2[nH]1` [Example 11, 2-(4-(2-fluorophenyl)-2-(pyrrolidin-1-yl)pyridin-3-yl)-3H-imidazo[4,5-c]pyridine Formic Acid Salt] were, in that order, 1 to 10 µM and “++++ (++++ indicates a value greater than 7.5)”.
As for `CCCCNc1nnc(-c2c(-c3ccccc3F)ccnc2N2CC[C@H](F)C2)o1` [Example 12, (S)—N-butyl-5-(4-(2-fluorophenyl)-2-(3-fluoropyrrolidin-1-yl)pyridin-3-yl)-1,3,4-oxadiazol-2-amine], the EC50 lay in the range of 10 to 50 µM and the “Empirical Emax” value is reported as “++ (++ indicates a value from 2.0 up to 5.0 μM)”.
Take `CC(C)CCc1nnc(-c2c(-c3ccccc3O)ccnc2N2CC[C@H](F)C2)o1` [Example 13, (S)-2-(2-(3-fluoropyrrolidin-1-yl)-3-(5-isopentyl-1,3,4-oxadiazol-2-yl)pyridin-4-yl)phenol]: the EC50 was at least 50 µM and the “Empirical Emax” value is reported as “+ (+ indicates a value less than 2.0 μM)”.
On to `F[C@H]1CCN(c2nccc(C3=CCCC3)c2-c2nc3ccccc3[nH]2)C1` [Example 14, (S)-2-(4-(cyclopent-1-en-1-yl)-2-(3-fluoropyrrolidin-1-yl)pyridin-3-yl)-1H-benzo[d]imidazole], for which the concentration for a half-maximal effect (EC50) fell in the range of 1 to 10 µM and the “Empirical Emax” value is recorded as “++ (++ indicates a value from 2.0 up to 5.0 μM)”.
In the same order, the values of `Fc1cccnc1-c1ccnc(N2CCCC2)c1-c1nc2ccccc2[nH]1` [Example 15, 2-(3-fluoro-2′-(pyrrolidin-1-yl)-[2,4′-bipyridin]-3′-yl)-1H-benzo[d]imidazole] are 10 to 50 µM and “++++ (++++ indicates a value greater than 7.5)”.
In the same order, the values of `c1ccc(-c2ccnc(N3CCCC3)c2-c2nc3ccccc3[nH]2)cc1` [Example 16, 2-(4-phenyl-2-(pyrrolidin-1-yl)pyridin-3-yl)-1H-benzo[d]imidazole] are 1 to 10 µM and “+++ (+++ indicates a value from 5.0 up to 7.5 μM)”.
The like results for `F[C@H]1CCN(c2nccc(-c3ccccc3)c2-c2nc3ccccc3[nH]2)C1` [Example 17, (S)-2-(2-(3-fluoropyrrolidin-1-yl)-4-phenylpyridin-3-yl)-1H-benzo[d]imidazole] were, in that order, 1 to 10 µM and “++++ (++++ indicates a value greater than 7.5)”.
Turning to `Fc1ccccc1-c1ccnc(N2CC[C@H](F)C2)c1-c1nc2ccccc2[nH]1` [Example 18, (S)-2-(4-(2-fluorophenyl)-2-(3-fluoropyrrolidin-1-yl)pyridin-3-yl)-1H-benzo[d]imidazole], the EC50 was in the range of 1 to 10 µM and the “Empirical Emax” value is on record as “++++ (++++ indicates a value greater than 7.5)”.
In the same order, the values of `F[C@H]1CCN(c2nccc(-c3ccccc3)c2-c2cc(-c3cccnc3)[nH]n2)C1` [Example 19, (S)-2-(3-fluoropyrrolidin-1-yl)-4-phenyl-3-(5-(pyridin-3-yl)-1H-pyrazol-3-yl)pyridine] are 10 to 50 µM and “++ (++ indicates a value from 2.0 up to 5.0 μM)”.
In the same order, the values of `CC(C)c1ccc(-c2cc(-c3c(-c4ccccc4)ccnc3N3CC[C@H](F)C3)n[nH]2)cc1` [Example 20, (S)-2-(3-fluoropyrrolidin-1-yl)-3-(5-(4-isopropylphenyl)-1H-pyrazol-3-yl)-4-phenylpyridine] are 10 to 50 µM and “++ (++ indicates a value from 2.0 up to 5.0 μM)”.
The like results for `Fc1cc(F)cc(-c2ccnc(N3CCCC3)c2-c2nc3ccccc3[nH]2)c1` [Example 23, 2-(4-(3,5-difluorophenyl)-2-(pyrrolidin-1-yl)pyridin-3-yl)-1H-benzo[d]imidazole] were, in that order, 1 to 10 µM and “++ (++ indicates a value from 2.0 up to 5.0 μM)”.
As to `F[C@H]1CCN(c2nccc(-c3ccccc3)c2C2=N[C@@H]3CCCC[C@H]3N2)C1` [Example 24, (3aR,7aR)-2-(2-((S)-3-fluoropyrrolidin-1-yl)-4-phenylpyridin-3-yl)-3a,4,5,6,7,7a-hexahydro-1H-benzo[d]imidazole], the EC50 fell in the range of 1 to 10 µM and the “Empirical Emax” value was “+ (+ indicates a value less than 2.0 μM)”.
The like results for `c1ccc(-c2ccnc(N3CCOCC3)c2C2=N[C@@H]3CCCC[C@H]3N2)cc1` [Example 25, 4-(3-((3aR,7aR)-3a,4,5,6,7,7a-hexahydro-1H-benzo[d]imidazol-2-yl)-4-phenylpyridin-2-yl)morpholine] were, in that order, 1 to 10 µM and “+ (+ indicates a value less than 2.0 μM)”.
For `CC1CN=C(c2c(-c3ccccc3)ccnc2N2CC[C@H](F)C2)N1` (stereo partly drawn) [Example 26, 2-((S)-3-fluoropyrrolidin-1-yl)-3-(5-methyl-4,5-dihydro-1H-imidazol-2-yl)-4-phenylpyridine], the EC50 lay in the range of 1 to 10 µM and the “Empirical Emax” value is recorded as “+ (+ indicates a value less than 2.0 μM)”.
The like results for `Cc1[nH]c(-c2c(-c3ccccc3)ccnc2N2CC[C@H](F)C2)nc1Br` [Example 27, (S)-3-(4-bromo-5-methyl-1H-imidazol-2-yl)-2-(3-fluoropyrrolidin-1-yl)-4-phenylpyridine] were, in that order, 1 to 10 µM and “++ (++ indicates a value from 2.0 up to 5.0 μM)”.
